Experimental data from article PMC5442318, “Hundreds of dual-stage antimalarial molecules discovered by a functional gametocyte screen” (Nature Communications, 2017).
Read-outs that look alike come from different tables or passages of the source.

Legend:
[1] = tested on: P. falciparum asexual blood stages; conditions: read-out: Pf Asexual blood stages XC50, cited from earlier work
[2] = tested on: P. falciparum stages IV–V gametocytes; assay: Gametocytocidal ATP-depletion assay (gametocyte ATP bioluminescence); type: cell-based, Plasmodium falciparum
Outline: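 Purified stage IV–V gametocytes (12,500/well) incubated with compound for 48 h at 37 °C under 3% O2/5% CO2. ATP measured by BacTiter-Glo luminescence as a viability surrogate; hits tested at 2 μM single concentration.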

[3] = tested on: P. falciparum stage V female gametocytes; assay: P. falciparum female gametocyte activation assay (Pf FGAA), 24 h or 48 h preincubation, Pfs25 expression readout; type: cell-based, Plasmodium falciparum NF54; conditions: mean, read-out: Gametocytes mean Pf FGAA IC50
Outline: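 Purified stage V gametocytes from P. falciparum NF54 gametocyte cultures were exposed to compounds for 24 h or 48 h at 37 °C under 3% O2/5% CO2, then activated by temperature drop plus xanthurenic acid. Activated females were stained with Cy3-anti-Pfs25 (0.5 μg ml^−1) for 24 h at 26 °C and counted by high-content imaging; pIC50 by nonlinear regression.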

[4] = tested on: HepG2 cells; assay: HepG2 cytotoxicity assay; type: cell-based
Outline: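 Post-incubation CellTiter-Glo luminescence; 30 min RT equilibration, 10 min RT stabilization before reading.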

[5] = TCAMS asexual blood stage data, ref 1 (Gamo, F. J. et al., Nature 465, 305-310, 2010)
[6] = P. falciparum female gametocytes
[7] = TCAMS data, ref 1 (Gamo et al., 2010)
[8] = P. falciparum female gametocyte activation assay

Structure (SMILES) | IC50 [3, 6] | IC50 [3] | IC50 [3, 8] | IC50 [1, 5] | Gametocytes mean ATP inhibition at 2µM [2] | HepG2 cells mean TOX50 ([4]; HepG2 cells; mean) | IC50 [1, 7] | Gametocytes mean ATP inhibition at 2µM (%) [2] | HepG2 cells mean TOX50 ([4]; mean) | HepG2 cells mean TOX50 ([4]; mean; HepG2 cells)
CCc1ccccc1-c1csc(C(=O)NCC2CCN(Cc3ccc(C(C)(C)C)cc3)C2)c1.O=C(O)C(F)(F)F (stereo not shown) [TCMDC-134448] | 1200 nM | – | – | 1150 nM | -14.62% | 7.67 µM | – | – | – | –
Cc1n[nH]c2ccc(-c3ccc4nccc(N5CCC(N)CC5)c4c3)cc12.Cl [TCMDC-134315] | 2450 nM | – | – | 590 nM | 71.38% | 6.88 µM | – | – | – | –
CC(C)c1ccc(CN2CCC(CNC(=O)c3cc(-c4cccc(Cl)c4)cs3)C2)cc1.O=C(O)C(F)(F)F (stereo not shown) [TCMDC-134438] | 600 nM | – | – | 750 nM | -9.36% | 6.53 µM | – | – | – | –
CCCN(CC1CC1)c1ncc(-c2cccc(CNCCC3CCCN3C)c2)cn1 (stereo not shown) [TCMDC-133142] | 2180 nM | – | – | 750 nM | 6.70% | 3.09 µM | – | – | – | –
Fc1ccc(OC2CN(c3nccc(NCc4ccccc4Cl)n3)C2)cc1 [TCMDC-135110] | 5220 nM | – | – | 900 nM | 44.31% | 83.45 µM | – | – | – | –
FC(F)(F)c1ccc2[nH]c(-c3cccc(-c4ccc(CNCCN5CCNCC5)cc4)c3)nc2c1.O=C(O)C(F)(F)F [TCMDC-132872] | 1790 nM | – | – | 860 nM | -15.41% | 8.81 µM | – | – | – | –
Cl.Nc1c(I)cc(C(=O)Nc2ccc3nc4c(c(N)c3c2)CCCC4)cc1I [TCMDC-142289] | – | – | 780 nM | 140 nM | 70.94% | – | – | – | – | 4.52 µM
Nc1cc2c(C3CCN(CC4CCN(C(=O)/C=C/c5ccc(Cl)c(Cl)c5)CC4)CC3)c[nH]c2cn1 [TCMDC-140133] | – | 1970 nM | – | – | – | – | 980 nM | -6.84% | 6.24 µM | –
ON=C1CCc2cc(-c3cc(-c4ccc(OC5CCNCC5)cc4)oc3-c3ccncc3)ccc21 [TCMDC-141381] | – | – | 200 nM | 160 nM | 40.68% | – | – | – | – | 5.01 µM
COc1ccccc1CNc1ccnc(N2CC(Oc3ccc(F)cc3)C2)n1 [TCMDC-135118] | 4070 nM | – | – | 850 nM | 42.55% | 73.68 µM | – | – | – | –
CN(CCCCN)Cc1ccc(-c2ccc(Cl)cc2)cc1 [TCMDC-140123] | – | 1580 nM | – | – | – | – | 880 nM | 17.75% | 3.55 µM | –
Cc1ccnc(NC(c2cccc(Cl)c2Cl)c2ccc3cccnc3c2O)c1 (stereo not shown) [TCMDC-123997] | 1910 nM | – | – | 1000 nM | 90.58% | 45.69 µM | – | – | – | –
[O-][s+]1c(Cl)c(-c2ccc(Cl)cc2)c2ccc(Cl)cc21 (stereo not shown) [TCMDC-124011] | 36.6 nM | – | – | 990 nM | 87.64% | 11.35 µM | – | – | – | –
CC1(CCN2CCC(c3c[nH]c4cnccc34)CC2)CCCc2c(Br)cccc2C1=O.Cl (stereo not shown) [TCMDC-141171] | – | – | 1730 nM | 190 nM | 10.47% | – | – | – | – | 5.25 µM
COc1cc(CNCCCCCCNCc2cc(OC)c3ccccc3c2OC)c(OC)c2ccccc12.CS(=O)(=O)O [TCMDC-137502] | – | 1670 nM | – | – | – | – | 700 nM | 1.18% | 3.67 µM | –
O=C(O)C(F)(F)F.O=S(=O)(NCCN1CCCC1)c1ccc(-c2ccc(CNC3Cc4ccccc4C3)cc2)s1 [TCMDC-132234] | 2270 nM | – | – | 590 nM | 1.19% | 5.83 µM | – | – | – | –
COc1cc2c(OC)cccc2cc1CNCCCCCCNCc1cc2cccc(OC)c2cc1OC.CS(=O)(=O)O [TCMDC-137945] | – | 1820 nM | – | – | – | – | 820 nM | -15.51% | 4.90 µM | –
N=C(NCC1CC1c1ccccc1)c1cccc(C(=N)NCC2CC2c2ccccc2)n1 (stereo not shown) [TCMDC-137456] | – | 1890 nM | – | – | – | – | 1760 nM | 24.65% | 6.21 µM | –
C=CCN(C(=O)c1ccc(Cl)c([N+](=O)[O-])c1)c1nc(-c2ccccc2)cs1 [TCMDC-124436] | 130 nM | – | – | 400 nM | 100.64% | >100 µM | – | – | – | –
c1ccc(CNc2cc(-c3ccccn3)nc(-c3ccccn3)n2)cc1 [TCMDC-125421] | 320 nM | – | – | 300 nM | 76.15% | 13.04 µM | – | – | – | –
O=C(O)C(F)(F)F.c1cc(CN2CCC(CCN3CCCCC3)CC2)cc(-c2csc(-c3nc4ccccc4[nH]3)c2)c1 [TCMDC-133919] | 2110 nM | – | – | 140 nM | 3.61% | 6.04 µM | – | – | – | –
Fc1ccc2nc(Nc3nc(-c4ccccn4)cs3)sc2c1 [TCMDC-125540] | 54.3 nM | – | – | 560 nM | 71.05% | 58.31 µM | – | – | – | –
CCOc1cc(CNCCCCCCNCc2cc(OCC)c(OCC)c3ccccc23)c2ccccc2c1OCC.CS(=O)(=O)O [TCMDC-137939] | – | 1780 nM | – | – | – | – | 280 nM | 5.51% | 2.00 µM | –

More lines, main results first:

IC50 [3, 6] | IC50 [3] | IC50 [3, 8] | Structure (SMILES) | IC50 [1, 5] | Gametocytes mean ATP inhibition at 2µM [2] | HepG2 cells mean TOX50 ([4]; HepG2 cells; mean) | IC50 [1, 7] | Gametocytes mean ATP inhibition at 2µM (%) [2] | HepG2 cells mean TOX50 ([4]; mean) | HepG2 cells mean TOX50 ([4]; mean; HepG2 cells)
10900 nM | – | – | Br.Oc1ccc(CCNCCCCCCNCCc2ccc(-c3ccccc3)cc2)cc1O [TCMDC-131268] | 600 nM | 64.17% | 13.18 µM | – | – | – | –
– | 980 nM | – | CN1CCN(CCCNCc2cccc(Nc3nccc(Nc4ccc(Oc5ccccc5)cc4)n3)c2)CC1 [TCMDC-138616] | – | – | – | 760 nM | 13.07% | 4.68 µM | –
– | 1060 nM | – | COc1ccc(NC(=O)c2cccc(Br)c2)cc1N1CCN(CCCCCCCN2CCN(c3cc(NC(=O)c4cccc(Br)c4)ccc3OC)CC2)CC1.Cl [TCMDC-139020] | – | – | – | 180 nM | -4.19% | 6.03 µM | –
960 nM | – | – | C[C@H](Cc1ccc(OCCCCCOc2ccc(C[C@@H](C)NC[C@H](O)c3cccc(Cl)c3)cc2)cc1)NC[C@H](O)c1cccc(Cl)c1.Cl [TCMDC-131563] | 190 nM | 21.40% | 2.11 µM | – | – | – | –
1400 nM | – | – | O=C(Nc1cccc(-c2cccc(-c3nc4cc(C(F)(F)F)ccc4[nH]3)c2)c1)Nc1ccc(F)c(F)c1F [TCMDC-133229] | 120 nM | -42.33% | 3.43 µM | – | – | – | –
1670 nM | – | – | Cc1cc(Nc2ncc(C#N)c(Nc3ccccc3C(N)=O)n2)ccc1N1CCN(C)CC1.Cl [TCMDC-134115] | 9 nM | 20.18% | 0.40 µM | – | – | – | –
2380 nM | – | – | Br.Oc1ccc(CCNCCCCCCNCCc2ccc(Cl)c3ccccc23)cc1O [TCMDC-131271] | 720 nM | 14.57% | 11.22 µM | – | – | – | –
– | 890 nM | – | COc1cc2nc(N3CCC(CNC(=O)c4ccc(-c5ccc(Cl)cc5)cc4)CC3)nc(N)c2cc1OC [TCMDC-138718] | – | – | – | 150 nM | 12.29% | 4.22 µM | –
2260 nM | – | – | COc1ccc(-c2cnc3[nH]cc(-c4ccncc4)c3c2)cc1OC [TCMDC-135853] | 130 nM | 76.41% | 11.79 µM | – | – | – | –
– | 720 nM | – | COc1ccc(CNCCCCCCNCc2ccc(OC)c3ccccc23)c2ccccc12.Cl [TCMDC-137631] | – | – | – | 580 nM | 16.64% | 1.82 µM | –
– | 1010 nM | – | CC(Cc1ccc(C(=O)Nc2ccc(CC(C)NCCc3cccc(Cl)c3)cc2)cc1)NCCc1ccc(C(F)(F)F)cc1 (stereo not shown) [TCMDC-139790] | – | – | – | 570 nM | 57.11% | 4.13 µM | –
– | 1470 nM | – | O=C(NCC1CCN(CCN2CCC(c3cn(CCO)c4ccccc34)CC2)CC1)c1ccc(-c2ccc(C(F)(F)F)cc2)cc1 [TCMDC-138856] | – | – | – | 440 nM | 5.55% | 2.69 µM | –
– | – | 970 nM | CN1CCc2cc(NS(=O)(=O)c3ccc(-c4ccc(Cl)cc4)cc3)c(OCCCN3CCCCC3)cc2CC1.Cl [TCMDC-141754] | 960 nM | 6.66% | – | – | – | – | 2.23 µM
– | 1050 nM | – | COc1cc2nc(N3CCC(CNC(=O)c4ccc(-c5ccc(-c6noc(C)n6)cc5)cc4)CC3)nc(N)c2cc1OC [TCMDC-138754] | – | – | – | 140 nM | 90.89% | 4.90 µM | –
